Patent US20240368133A1, “Compounds for the Treatment of Pain, in Particular, Neuropathic Pain, and/or Other Diseases or Disorders that are Associated with AT2R and/or AT2R Mediated Signaling” (Confo Therapeutics N.V., priority 2021, published 2024)

Assays:
[1] = target: human AT2R fused to Cb23 (Homo sapiens, UniProt P50052); test: Radioligand binding assay, displacement of 125I-[Sar1, Ile8]-Angiotensin II, hAT2R Cb23; conditions: displacement of 125I-[Sar1, Ile8]-Angiotensin II, human AT2R fused to Cb23, HEK-293 cell membrane preparations; read-out: Binding affinity on hAT2R_Cb23 IC50
How it was run: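 Membranes from HEK-293 cells expressing human AT2R fused to Cb23 were incubated with 0.05 nM 125I-[Sar1, Ile8]-Angiotensin II in 100 μL buffer (50 mM Tris, 5 mM MgCl2, 1 mM EDTA, 0.1% BSA, pH 7.4) for one hour at 25° C. Ligands were tested as eight-point dose-response curves in duplicate, with C21 and Angiotensin II as references.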

[2] = target: human AT1R (Homo sapiens (Human), UniProt P30556); test: Counterscreen radioligand binding assay, displacement of 125I-[Sar1, Ile8]-Angiotensin II, hAT1R WT; conditions: for inhibition at 1 µM: read-out: % Displaced radioligand at 1 μM; for inhibition at 10 µM: read-out: % Displaced radioligand at 10 μM; for IC50: HEK-293 cell membranes, read-out: Binding affinity On hAT1R IC50
How it was run: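 Compounds displaced 0.05 nM 125I-[Sar1, Ile8]-Ang II from human AT1R in HEK-293 membranes (1 h, 25° C; Tris/MgCl2/EDTA/BSA buffer, pH 7.4). Readout was filtration and scintillation counting, with non-specific binding set by 10 μM [Sar1]-Ang II. Values are % displacement at 1 μM and […], or IC50 from eight-point four-parameter fits.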

[3] = 125I-[Sar1, Ile8]-Ang II, compound at 1 μM, semi-quantitative score
[4] = 125I-[Sar1, Ile8]-Ang II, compound at 10 μM, semi-quantitative score

human AT1R, sequence (P30556 whole entry): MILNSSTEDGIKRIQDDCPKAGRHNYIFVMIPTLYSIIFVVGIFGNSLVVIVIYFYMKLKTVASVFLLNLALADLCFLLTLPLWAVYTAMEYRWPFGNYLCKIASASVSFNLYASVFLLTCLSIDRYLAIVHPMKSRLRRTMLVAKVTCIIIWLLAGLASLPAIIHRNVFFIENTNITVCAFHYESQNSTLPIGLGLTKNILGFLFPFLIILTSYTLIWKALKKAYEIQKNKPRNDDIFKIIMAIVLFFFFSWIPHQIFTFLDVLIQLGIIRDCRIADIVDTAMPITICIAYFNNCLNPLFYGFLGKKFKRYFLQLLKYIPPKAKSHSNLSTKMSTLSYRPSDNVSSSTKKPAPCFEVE
human AT2R fused to Cb23, sequence (P50052 whole entry, looked up, the tested form may be a part): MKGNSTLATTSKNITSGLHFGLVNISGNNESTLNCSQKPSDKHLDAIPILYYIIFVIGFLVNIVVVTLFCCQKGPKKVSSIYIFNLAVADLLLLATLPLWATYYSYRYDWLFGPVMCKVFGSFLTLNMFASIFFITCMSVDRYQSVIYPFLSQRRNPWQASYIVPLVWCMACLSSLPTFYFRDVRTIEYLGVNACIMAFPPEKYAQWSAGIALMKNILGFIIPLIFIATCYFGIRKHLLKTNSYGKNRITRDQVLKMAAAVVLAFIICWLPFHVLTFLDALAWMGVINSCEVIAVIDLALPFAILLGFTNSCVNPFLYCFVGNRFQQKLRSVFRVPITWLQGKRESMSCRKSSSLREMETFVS

Compound | IC50 [1] [nM] | inhibition at 1 µM [2, 3] [%] | inhibition at 10 µM [2, 4] [%] | IC50 [2] [nM] | % Displaced radioligand at 1 μM [2, 3] | % Displaced radioligand at 10 μM [2, 4]
c1ccc2sc(CN3CCN(c4cc(NC5CCCC5)ccc4-c4nn[nH]n4)CC3)nc2c1 [Compound A-64, 3-[4-(1,3-benzothi-azol-2-ylmethyl)-piperazin-1-yl]-N-cyclopentyl-4-(2H-tetrazol-5-yl)aniline] | 1560 | < 30 | < 30 | 39700 | – | –
CCc1ccc(C(=O)NS(=O)(=O)CC)c(N2CCN(Cc3nc4ccccc4s3)CC2)c1 [Compound A-33, 2-[4-(1,3-benzothiazol-2-ylmethyl)piperazin-1-yl]-4-ethyl-N-ethylsulfonyl-benzamide] | 3070 | < 30 | < 30 | – | – | –
CC(C)Cc1cc(F)c(-c2nn[nH]n2)c(N2CCN(Cc3nc4ccccc4s3)CC2)c1 [Compound A-132, 2-[[4-[3-fluoro-5-isobutyl-2-(2H-tetrazol-5-yl)phen-yl]piperazin-1-yl]-methyl]-1,3-benzo-thiazole] | 355 | < 30 | < 30 | – | – | –
Cc1cc(-c2nn[nH]n2)c(N2CCN(Cc3nc4ccccc4s3)CC2)cc1CC(C)C [Compound A-134, 2-[[4-[5-isobutyl-4-methyl-2-(2H-tetrazol-5-yl)phen-yl]piperazin-1-yl]-methyl]-1,3-benzo-thiazole] | 9660 | < 30 | < 30 | – | – | –
c1ccc2sc(CN3CCN(c4cc(N5CCCCC5)ccc4-c4nn[nH]n4)CC3)nc2c1 [Compound A-65, 2-((4-(5-(piperidin-1-yl)-2-(2H-tetrazol-5-yl)phenyl)piperazin-1-yl)methyl) benzo[d]thiazole] | 1850 | < 30 | < 30 | 60800 | – | –
CCc1cc(-c2nn[nH]n2)c(N2CCN(Cc3nc4ccccc4s3)CC2)cc1OC(C)C [Compound A-119, 2-[[4-[4-ethyl-5-isopropoxy-2-(2H-tetrazol-5-yl)phen-yl]piperazin-1-yl]-methyl]-1,3-benzo-thiazole] | 9420 | < 30 | < 30 | – | – | –
CCOC(=O)NS(=O)(=O)c1ccc(C(F)(F)F)cc1N1CCN(Cc2nc3ccccc3n2C)CC1 [Compound A-08, ethyl N-[2-[4-[(1-methylbenzimidazol-2-yl)methyl]piperazin-1-yl]-4-(trifluoromethyl)phenyl]sulfonylcarbamate] | 6820 | < 30 | < 30 | 92100 | – | –
COc1ccc(CN2CCN(c3cc(CC(C)C)ccc3-c3nn[nH]n3)CC2)nn1 [Compound A-115, 3-[[4-[5-isobutyl-2-(2H-tetrazol-5-yl)-phenyl]piperazin-1-yl]methyl]-6-methoxy-pyridazine] | 1980 | < 30 | < 30 | – | – | –
Cc1cnnc(CN2CCN(c3cc(CC(C)C)ccc3-c3nn[nH]n3)CC2)c1 [Compound A-112, 3-[[4-[5-isobutyl-2-(2H-tetrazol-5-yl)phenyl]piperazin-1-yl]methyl]-5-methyl-pyridazine] | 697 | < 30 | < 30 | – | – | –
c1ccc2sc(CN3CCN(c4cc(OC5CCCC5)ccc4-c4nn[nH]n4)CC3)nc2c1 [Compound A-57, 2-[[4-[5-(cyclo-pentoxy)-2-(2H-tetrazol-5-yl)-phenyl]piperazin-1-yl]methyl]-1,3-benzothiazole] | 1900 | < 30 | < 30 | 34500 | – | –
CCS(=O)(=O)NC(=O)c1ccc(CC(C)C)cc1N1CCN(Cc2nc3ccccc3s2)CC1 [Compound A-36, 2-[4-(1,3-benzo-thiazol-2-ylmethyl)-piperazin-1-yl]-N-ethylsulfonyl-4-isobutyl-benzamide] | 1420 | < 30 | < 30 | – | – | –
CC(C)Cc1ccc(-c2nn[nH]n2)c(N2CCN(Cc3ncco3)CC2)c1 [Compound A-98, 2-[[4-[5-isobutyl-2-(2H-tetrazol-5-yl)-phenyl]piperazin-1-yl]methyl]oxazole] | 5690 | < 30 | < 30 | – | – | –

The remaining lines, values ahead:

IC50 [1] [nM] | inhibition at 1 µM [2, 3] [%] | inhibition at 10 µM [2, 4] [%] | IC50 [2] [nM] | % Displaced radioligand at 1 μM [2, 3] | % Displaced radioligand at 10 μM [2, 4] | Compound
1300 | < 30 | < 30 | – | – | – | CC(C)Cc1cc(F)c(-c2nn[nH]n2)c(N2CCN(Cc3cccnn3)CC2)c1 [Compound A-164, 3-[[4-[3-fluoro-5-isobutyl-2-(2H-tetrazol-5-yl)phen-yl]piperazin-1-yl]-methyl]pyridazine]
247 | < 30 | < 30 | – | – | – | CC(C)Cc1cc(F)c(-c2nn[nH]n2)c(N2CCN(C(=O)c3ccccn3)[C@@H](C)C2)c1 [Compound A-216, [(2S)-4-[3-fluoro-5-isobutyl-2-(2H-tetrazol-5-yl)phen-yl]-2-methyl-piperazin-1-yl]-(2-pyridyl)methanone]
1470 | < 30 | < 30 | – | – | – | CC(C)Cc1cnc(-c2nn[nH]n2)c(N2CCN(Cc3nc4ccccc4s3)CC2)c1 [Compound A-147, 2-[[4-[5-isobutyl-2-(2H-tetrazol-5-yl)-3-pyridyl]piperazin-1-yl]methyl]-1,3-benzothiazole]
650 | < 30 | < 30 | – | – | – | Cc1ccc(CN2CCN(c3cc(CC(C)C)cc(F)c3-c3nn[nH]n3)CC2)nc1 [Compound A-201, 1-[3-fluoro-5-isobutyl-2-(2H-tetrazol-5-yl)phenyl]-4-[(5-methyl-2-pyridyl)methyl]piperazine]
80.7 | < 30 | < 30 | – | – | – | Cc1cnc(CN2CCN(c3cc(CC(C)C)cc(F)c3-c3nn[nH]n3)CC2)s1 [Compound A-220, 2-[[4-[3-fluoro-5-isobutyl-2-(2H-tetrazol-5-yl)phen-yl]piperazin-1-yl]-methyl]-5-methyl-thiazole]
389 | < 30 | < 30 | – | – | – | CC(C)Cc1cc(F)c(-c2nn[nH]n2)c(N2CCN(C(=O)c3cccnn3)CC2)c1 [Compound A-213, [4-[3-fluoro-5-isobutyl-2-(2H-tetrazol-5-yl)phenyl]piperazin-1-yl]-pyridazin-3-yl-methanone]
54.1 | – | – | – | * (* <30%) | * (* <30%) | Cc1cnc(C(C)N2CCN(c3cc(CC(C)C)cc(F)c3-c3nn[nH]n3)CC2)s1 (stereo not shown) [Compound A-225, 2-[1-[4-[3-fluoro-5-isobutyl-2-(2H-tetrazol-5-yl)phen-yl]piperazin-1-yl]-ethyl]-5-methyl-thiazole]
92.2 | < 30 | < 30 | – | – | – | Cc1cnc(CN2C(C)CN(c3cc(CC(C)C)cc(F)c3-c3nn[nH]n3)CC2C)s1 (stereo not shown) [Compound A-224, 2-[[4-[3-fluoro-5-isobutyl-2-(2H-tetrazol-5-yl)phen-yl]-2,6-dimethyl-piperazin-1-yl]-methyl]-5-methyl-thiazole]
8220 | < 30 | < 30 | – | – | – | c1ccc2sc(CN3CCN(c4nc(C5CC5)ccc4-c4nn[nH]n4)CC3)nc2c1 [Compound A-145, 2-[[4-[6-cycloprop-yl-3-(2H-tetrazol-5-yl)-2-pyridyl]piper-azin-1-yl]methyl]-1,3-benzothiazole]
